Assay results as given in patent US7084248B2, “Peptide composition and method for delivering substances into the cytosol of cells” (Gene Tools, LLC, priority 2004, dated 2006).

Test system: cultured animal cells
Assay: Functional assay of cytosolic delivery of a Morpholino antisense oligo (splice-correction luciferase system)
Type: cell-based
Details: all-histidine peptides
Text: In contrast to the above design flexibility, the respective sizes of the lipophilic and weak-base faces of the delivery peptide have a substantial impact on that peptide's delivery efficiency. […] These assays utilized an established functional measurement of cytosolic delivery of a Morpholino antisense oligo in cultured cells (Kang, 1998). A representative test procedure of this type is described in Example 6, in a later section of his application.
The most definitive assessment of cytosolic delivery is one wherein when a cargo is delivered into the cytosol of a cell it generates a quantifiable signal proportional to the amount of cargo delivered into the cytosol. Also, for definitive results, that cargo should be completely stable within the cytosol so that increases due to delivery are not underestimated due to losses from degradation.
In the Kole test system (commercially available from GENE TOOLS, LLC, Philomath, Oreg.) a cell line has been stably transfected with a gene that codes for an RNA transcript that includes a mutation that generates a splicing error which acts to prevent the translation of luciferase coded by that RNA transcript. […] This leads to normal translation of the luciferase, and the light emission from that luciferase is readily quantitated in a luminometer. […]

Substance: poly-histidine
- delivery of a Morpholino antisense oligo into the cytosol of cultured animal cells: neither poly-histidine nor defined-length oligo-histidines achieved significant delivery
